Reference: patent publication US12162855B2, “Tetrahydroquinolino derivatives for the treatment of metastatic and chemoresistant cancers” (THE TRUSTEES OF PRINCETON UNIVERSITY, priority 2018, dated 2024)

Target: T1, ALDH1a3 (Homo sapiens, UniProt P47895)
T1 construct: lentiviral vectors containing either the vector backbone or full-length human Aldh1a3; expressed in transfected cells; host or cells: SUM159-M1a (A1) and SUM159 (A7) breast cancer cells, lentiviral pLex vector, puromycin selection
T1 sequence (P47895 1-512): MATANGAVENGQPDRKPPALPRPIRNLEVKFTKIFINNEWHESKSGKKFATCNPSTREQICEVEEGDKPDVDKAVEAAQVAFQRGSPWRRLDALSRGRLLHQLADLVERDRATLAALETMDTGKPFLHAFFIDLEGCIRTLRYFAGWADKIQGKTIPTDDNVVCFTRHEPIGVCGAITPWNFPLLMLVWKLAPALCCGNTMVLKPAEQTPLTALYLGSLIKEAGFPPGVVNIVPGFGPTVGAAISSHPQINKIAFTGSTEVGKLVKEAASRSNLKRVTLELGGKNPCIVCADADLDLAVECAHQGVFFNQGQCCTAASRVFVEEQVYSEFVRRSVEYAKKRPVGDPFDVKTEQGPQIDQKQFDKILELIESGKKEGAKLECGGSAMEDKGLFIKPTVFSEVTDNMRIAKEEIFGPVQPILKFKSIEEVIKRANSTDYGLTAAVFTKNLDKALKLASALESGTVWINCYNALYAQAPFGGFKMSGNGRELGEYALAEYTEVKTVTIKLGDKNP
Test: ALDEFLUOR assay in SUM159-M1a-Aldh1a3 cells (flow cytometry)
Type: cell-based
Details: for inhibition at 0.1 µM / Percent of Cells Positive for ALDEFLUOR at 100 nM: SUM159-M1a-Aldh1a3 cells, compound at 100 nM; for inhibition at 0.1 µM: read-out: Inhibitory Activity at 100 nM (%)
Experimental: Cells were counted, centrifuged and resuspended at 1,000,000 cells/mL in ALDEFLUOR™ buffer (Stemcell Technologies). ALDEFLUOR™ substrate (Stemcell Technologies, 1:200) and test compound or 1 mM DEAB were added to cell suspension and incubated at 37° C. for 45 minutes with vortexing every 15 minutes. Cells were centrifuged and resuspended in ALDEFLUOR™ buffer with DAPI at 5 μg/mL. Samples were analyzed with the BD LSR2 flow cytometry platform. Gating was performed using DEAB as a negative control.
Gating for background fluorescence was performed using 1 millimolar DEAB as a negative control.
The [inh-min] threshold was set at the lower bound of two standard deviations of control samples, while the IC50 threshold was set at 50% of the average of control samples.
High activity was gated at the 99th percentile of cells at a MBE1.5 concentration of 10 nanomolar. The [inh-min] threshold was set at the lower bound of two standard deviations of control samples.
An ALDEFLUOR™ assay was also used to assess the relative activity of several compounds described herein against SUM159-M1a-Aldh1a3 cells. The activity of several compounds in the assay at a concentration of 100 nM is reported in Table 1, along with the chemical structure and compound name associated with each compound.

Structure (SMILES) | inhibition at 0.1 µM | relative potency, ALDEFLUOR activity (FIG. 12) (concentration of 10 nM, compared to DMSO or DEAB-treated cells) | Percent of Cells Positive for ALDEFLUOR at 100 nM | inhibition of ALDH1a3 activity (FIG. 1A) (compounds at 100 nM)
O=C1CCc2cc(NC(=O)c3ccncc3)c(F)cc2N1 [MBE1.2, N-(7-fluoro-2-oxo-1,2,3,4-tetrahydroquinolin-6-yl)isonicotinamide] | 8% |  |  | 
CC(C)Cc1ccccc1C(=O)Nc1cc2c(cc1F)NC(=O)CC2 [MBE1.5C, N-(7-fluoro-2-oxo-1,2,3,4-tetrahydroquinolin-6-yl)-2-isobutylbenzamide] |  | nearly twice as potent as MBE 1.5, MBE 1.5A or MBE 1.5D |  | 
CCc1cnccc1C(=O)Nc1ccc2c(c1)CCC(=O)N2 [MBE1.6, 3-ethyl-N-(2-oxo-1,2,3,4-tetrahydroquinolin-6-yl)isonicotinamide] | 83% |  | 13% | high-affinity compounds for the inhibition of ALDH1a3 activity
Cc1ccc(C)c(CNc2ccc3c(c2)CCC(=O)N3)c1 [MBE2, 6-((2,5-dimethylbenzyl)amino)-3,4-dihydroquinolin-2(1H)-one] | 45% |  |  | 
Cc1ccc(C(=O)Nc2ccc3c(c2)CCC(=O)N3)cc1C [MBE3.1, 3,4-dimethyl-N-(2-oxo-1,2,3,4-tetrahydroquinolin-6-yl)benzamide] | 0.6% |  |  | 
Cc1ccc(C(=O)Nc2ccc3c(c2)CCC(=O)N3)c(C)c1 [MBE3.2, 2,4-dimethyl-N-(2-oxo-1,2,3,4-tetrahydroquinolin-6-yl)benzamide] | 3.3% |  |  | 
Cc1ccccc1C(=O)Nc1ccc2c(c1)CCC(=O)N2 [MBE3.3, 2-methyl-N-(2-oxo-1,2,3,4-tetrahydroquinolin-6-yl)benzamide] | 42% |  |  | 
O=C1CCc2cc(NCc3ccccc3)ccc2N1 [MBE3.4, 6-(benzylamino)-3,4-dihydroquinolin-2(1H)-one] | 11% |  |  | 
O=C1CCc2cc(NC(=O)c3ccncc3F)c(F)cc2N1 [MBE3.5, 3-fluoro-N-(7-fluoro-2-oxo-1,2,3,4-tetrahydroquinolin-6-yl)isonicotinamide] | 18% |  | 63% | 
Cc1cncc(C(=O)Nc2cc3c(cc2F)NC(=O)CC3)c1 [MBE3.6, N-(7-fluoro-2-oxo-1,2,3,4-tetrahydroquinolin-6-yl)-5-methylnicotinamide] | 29% |  | 55% | 
O=C1CCc2cc(NCc3ccc[nH]3)c(F)cc2N1 [MBE3.8, 6-(((1H-pyrrol-2-yl)methyl)amino)-7-fluoro-3,4-dihydroquinolin-2(1H)-one] | 2% |  | 75% | 
